Earlier results on one compound are cited in US20220370378A1 (SOCIETE DES PRODUITS NESTLE S.A., priority 2019, published 2022).

For data set [1] the following is noted: humans.
Data set [2] deals with GLUT4 translocation in skeletal muscle cells. Conditions: single-dose administration, compared among three inositol isomers.

In the case of `O[C@H]1[C@H](O)[C@@H](O)[C@H](O)[C@@H](O)[C@@H]1O` [scyllo-inositol, (1r,2r,3r,4r,5r,6r)-Cyclohexane-1,2,3,4,5,6-hexol], the “mean time to reach the maximum level after ingestion” value in data set [1] is “about 3.8 h”. For the same compound, the GLUT4 translocation entry in data set [2] is “most efficiently among three inositol isomers”.
